Here are results for 1 molecule from US5373020A, “Substituted 5-(2-((2-aryl-2-hydroxyethyl)amino)propyl)-1,3-benzodioxoles” (American Cyanamid Company, priority 1993, dated 1994).

As usually defined, the EC50 is the midpoint of the concentration-response curve. Lower therefore signals higher potency in that assay.

Where a name gives a salt, the structure may show the parent alone.

In one assay the test system is fa/fa rats. Nature of the assay: Change in weight and food consumption, compound in chow, obese rats. The assay is classed as in vivo, rat (fa/fa). On the procedure:
The compounds of this invention were tested for hypoglycemic and anti-obesity activity according to the following procedure.
Obese mice (C57 B1/6J (ob/ob)), and/or diabetic mice (C57 B1/KsJ (db/db)) were obtained from Jackson Laboratories, Bar Harbor, Maine. Obese rats (fa/fa) were obtained from Charles River Laboratories, Wilmington, Mass. Obese mice were 8 weeks of age and diabetic mice were 9 weeks of age at the start of the test. Obese rats were 12-14 weeks of age at the start.
The test compounds were dissolved in methanol, mixed with powdered Purina rodent chow on a weight of compound to weight of chow basis and thoroughly dried.
Groups of 6 control mice or rats received vehicle (methanol) treated chow.
Groups of 6 test rats were fed 25 g of chow per day for one month. Except for the first day or two, they consumed all their food each day. When these animals are fed ad libitum, they consume 26 g of chow per day and the compounds have no effect on food consumption.
The mice or rats were weighed before the first treatment and once at the end of each indicated treatment period.

For the next assay, the target named is T1, β2-receptors (Mus musculus, UniProt P18762).
T1 construct: Soleus muscle from mice were dissected; from tissue; host or cells: mouse soleus muscle
The experiment in a line: Inhibition of insulin-mediated incorporation of 14C-glucose into glycogen in isolated soleus muscle (β2-effect). On the procedure: β-Adrenergic receptors can be divided into β1, β2 and β3 -subtypes. Activation of β1 -receptors invokes increases in heart rate while activation of β2 -receptors stimulates glycogen breakdown in muscle and thereby prevents glycogen synthesis. Activation of β3 -receptors stimulates lipolysis (the breakdown of adipose tissue triglycerides to glycerol and free fatty acids), and thereby promotes the loss of fat mass.
The β2 -effect of the compounds was determined by their ability to inhibit the insulin-mediated incorporation of ^14 C-glucose into glycogen in isolated muscle. Soleus muscle from mice were dissected, tied at each end, and placed in a clamp to maintain tension. The clamped muscle was added to a vial that contained 2 ml of KHB with 1.5% bovine serum albumin, 0.3 mU/ml insulin, 5 mM (U^-14 C) glucose, and the appropriate additions of compound or vehicle. The vial was gassed with 95% O2 -5% CO2, capped, and the tissue incubated for one hour in a rotating water bath at 37° C. The muscle was then removed, rinsed in ice-cold saline, blotted and weighed. It was then added to 1 ml of 30% KOH containing 5 mg/ml of oyster glycogen, boiled for 10 minutes, and 0.4 ml of 2% Na2 SO4 and 3.2 ml of 100% ethanol added. After standing overnight at 4° C., the glycogen was pelleted by centrifugation, washed once with 66% ethanol, and repelleted. The pellet was dissolved in 1 ml of water and the amount of radioactivity present determined by liquid scintillation.

T1 sequence (P18762 whole entry): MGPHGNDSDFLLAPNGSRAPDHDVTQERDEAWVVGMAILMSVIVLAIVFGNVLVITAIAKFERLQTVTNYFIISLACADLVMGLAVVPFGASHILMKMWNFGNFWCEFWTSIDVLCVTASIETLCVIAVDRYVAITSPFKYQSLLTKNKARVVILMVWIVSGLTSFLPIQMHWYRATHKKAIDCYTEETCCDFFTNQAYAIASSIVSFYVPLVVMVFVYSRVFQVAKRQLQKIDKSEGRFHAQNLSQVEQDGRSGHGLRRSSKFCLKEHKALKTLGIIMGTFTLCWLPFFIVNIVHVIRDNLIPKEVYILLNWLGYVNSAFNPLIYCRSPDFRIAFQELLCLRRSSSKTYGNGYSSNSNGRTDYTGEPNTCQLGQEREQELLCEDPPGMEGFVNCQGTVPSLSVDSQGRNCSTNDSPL

Turning to `COC(=O)C1(C(=O)OC)Oc2ccc(C[C@@H](C)NC[C@H](O)c3cccc(Cl)c3)cc2O1` (stereo in doubt) [CL1, (R* R*)-(±)-5-(2-((2-(3-chlorophenyl)-2-hydroxyethyl)amino)propyl)-1,3-benzodioxole-2,2-dicarboxylic acid, dimethyl ester hydrobromide], the “Average Daily Food Consumption” value in the assay with fa/fa rats (dose 0.0006 % wt of chow), in the assay with fa/fa rats (dose 0.002 % wt of chow) and in the assay on fa/fa rats (dose 0.006 % wt of chow) was 25 g/animal each time. In addition, the Change in weight was found to be 14 grams in the assay with fa/fa rats (dose 0.0006 % wt of chow, week 1); 20 grams with fa/fa rats (dose 0.0006 % wt of chow, week 2); 27 grams in the assay with fa/fa rats (dose 0.0006 % wt of chow, week 3); 26 grams in the assay with fa/fa rats (dose 0.0006 % wt of chow, week 4); 1 grams with fa/fa rats (dose 0.002 % wt of chow, week 1); 2 grams in the assay with fa/fa rats (dose 0.002 % wt of chow, week 2). The Change in weight is given as 3 grams in the assay with fa/fa rats (dose 0.002 % wt of chow, week 3); 4 grams with fa/fa rats (dose 0.002 % wt of chow, week 4); 10 grams in the assay with fa/fa rats (dose 0.006 % wt of chow, week 1); 4 grams in the assay on fa/fa rats (dose 0.006 % wt of chow, week 2); -15 grams with fa/fa rats (dose 0.006 % wt of chow, week 3); -8 grams with fa/fa rats (dose 0.006 % wt of chow, week 4). This molecule also returned a concentration giving a half-maximal response (EC50) at β2-receptors of 0.8 µM.
